We go through 45 compounds from patent US6998258B1, “L-pantolactone-hydrolase and a method for producing D-pantolactone” (BASF Aktiengesellschaft, priority 1999, dated 2006).

Where two headings read alike, the source gives them in different places. Square brackets hold non-standard residues; d marks the D form. Peptide text beside a SMILES is read from it. * marks the point of attachment. Sta = CC(C)C[C@H](N)[C@@H](O)CC(=O)O; Isovaleryl = CC(C)CC(=O)*

In experiment [1] the test system is L-pantolactone hydrolase from Lu681. The experiment in a line: Optical lipase assay with resorufin ester in microtiter plate. The format is biochemical, Burkholderia caryophylli. Conditions: Lu681 enzyme, 60 to 482 U/l.
The subject of experiment [2] is L-pantolactone hydrolase from Lu5351. The experiment in a line: Substrate specificity of purified L-pantolactone hydrolase from Lu5351 (HPLC). Format: biochemical, Agrobacterium radiobacter.
In experiment [3] the test system is L-pantolactone hydrolase from Lu681. In words: Substrate specificity of purified L-pantolactone hydrolase from Lu681 (HPLC). The format is biochemical, Burkholderia caryophylli.
In experiment [4] the test system is L-pantolactone hydrolase from Burkholderia caryophylli Lu681. The experiment in a line: Inhibition and activation by added substances, standard assay, Lu681 enzyme. Format: biochemical.
The subject of experiment [5] is L-pantolactone hydrolase from Agrobacterium radiobacter Lu5351. The experiment in a line: Inhibition and activation by added substances, standard assay, Lu5351 enzyme. The format is biochemical.
The subject of a further experiment is D-pantolactone hydrolase. Conditions: cited from earlier work.
The subject of experiment [6] is recombinant 681 lactonase. Format: biochemical, Burkholderia caryophylli.
Where [7] appears, read: added substance 1 mM, 150 mM L-pantolactone, 1 h, 30° C., vs no addition.
Where [8] appears, read: substrate 2.5 mN, 0.1 U/ml enzyme, 150 mM Pipes pH 6.8.
The mark [9] stands for this setting: added substance 0.1%, vs no addition.
The mark [10] stands for this setting: substrate 150 mN, 0.1 U/ml enzyme, 150 mM Pipes pH 6.8.
The mark [11] stands for this setting: substrate 10 mN, 0.1 U/ml enzyme, 150 mM Pipes pH 6.8.
[12] abbreviates: substrate 50 mN, 0.1 U/ml enzyme, 150 mM Pipes pH 6.8.

Turning to `CCCCCCCCCCCCOCC(COC(=O)CCCC(=O)Oc1ccc2nc3ccc(=O)cc-3oc2c1)OCCCCCCCCCCCC` (racemic) [1,2-O-Dilauryl-rac-glycero-3-glutaric acid resorufin ester], in experiment [1], the “lipase activity as share of the L-pantolactone hydrolase activity” value is “about 0.05%”. Besides, the Activity result in experiment [2] and in experiment [3] was “(+) (key: ++: >50 U/l; +: >5 U/l; (+): >0.5 U/l; −: <0.5 U/l)” throughout.
As to `O[C@H](CS)[C@H](O)CS` (racemic) [DTT, Dithiothreitol], the “Relative Activity” value in experiment [4] (setting [7]) was determined as 99%; in experiment [5] (setting [7]), 106%.
For the compound `O=C1Cc2cc(O)ccc2O1` [5-Hydroxy-2-coumaranone], in experiment [3] (setting [8]), the Activity result is “+ (+: >5 U/l)”.
As for `CC#N` [Acetonitrile], the “Relative Activity” value in experiment [4] was 119%.
For `C[C@H](CCC(=O)NCCC[N+](C)(C)CCCS(=O)(=O)[O-])[C@H]1CC[C@H]2[C@@H]3[C@H](O)C[C@@H]4C[C@H](O)CC[C@]4(C)[C@H]3C[C@H](O)[C@]12C` [CHAPS, ([3-Cholamidopropyl]-dimethylammonio)-1-propane-sulfonate], the “Relative Activity” value in experiment [4] (setting [9]) was found to be 104%; in experiment [5] (setting [9]), 100%.
Regarding `[Ca+2].[Cl-].[Cl-]` [CaCl2], the “Relative Activity” value in experiment [4] is on record as 101%; in experiment [5], 105%.
As for `[Cd+2]` [Cd^2+], in the experiment with D-pantolactone hydrolase, the “inhibition of the enzyme” value was “inhibited”.
As for `O=C(O)CC(O)(CC(=O)O)C(=O)O` [Citric acid], in experiment [4] (added substance 30 mM, pH 6.4, vs no addition), the “Relative Activity” value is 97%.
`[Cu+2]` [Cu^2+]: the “inhibition of the enzyme” value in the experiment with D-pantolactone hydrolase is recorded as “inhibited”.
`O=C1OC(C(O)CO)C(O)C1O` [D-(−)-Gulono-γ-lactone]: the Activity entry in experiment [2] (pH 6.8) was “++ (key: ++: >50 U/l; +: >5 U/l; (+): >0.5 U/l; −: <0.5 U/l)”.
As to `O=C1OC(C(O)CO)C(O)C1O` [D-Galactono-γ-lactone], the values for the Activity entry in experiment [2] (pH 6.8) and in experiment [3] (pH 6.8) were “++ (key: ++: >50 U/l; +: >5 U/l; (+): >0.5 U/l; −: <0.5 U/l)” and “+ (key: ++: >50 U/l; +: >5 U/l; (+): >0.5 U/l; −: <0.5 U/l)”, respectively.
`CC1(C)COC(=O)C1O` [D-Pantolactone]: the type of inhibition entry in experiment [6] is listed as “competitive inhibition”. Besides, the Activity result was “(+) ((+): >0.5 U/l)” in experiment [2] (setting [10]) and “− (−: <0.5 U/l)” in experiment [3] (setting [10]).
As for `O=C1CCc2ccccc2O1` [Dihydrocumarin], the Activity entry in experiment [2] (pH 6.8) is recorded as “+ (key: ++: >50 U/l; +: >5 U/l; (+): >0.5 U/l; −: <0.5 U/l)”.
Turning to `O=C(O)CN(CCN(CC(=O)O)CC(=O)O)CC(=O)O` [EDTA, Ethylenediaminetetraacetic acid], in the experiment with D-pantolactone hydrolase (U.S. Pat. No. 5,372,940), the “inhibition of the enzyme” value is “inhibited”. The “Relative Activity” value in experiment [4] (setting [7]) and in experiment [5] (setting [7]) was 97% in each case.
Regarding `CCOC(=O)C(C)O` (stereo not drawn) [Ethyl (L)(−)-lactate], the Activity result in experiment [2] (setting [10]) and in experiment [3] (setting [10]) was “++ (++: >50 U/l)” in each case.
On to `CCOC(=O)[C@@H](C)O` [Ethyl D(+)-lactate], for which the Activity entry in experiment [2] (setting [10]) and in experiment [3] (setting [10]) was “+ (+: >5 U/l)” throughout.
For `[Cl][Fe][Cl]` [FeCl2], the “Relative Activity” value is reported as 104% in experiment [4] and 108% in experiment [5].
Turning to `OO` [H2O2], the “Relative Activity” value in experiment [4] came to 95%.
On to `[Cl][Hg][Cl]` [HgCl2], for which the results for the “Relative Activity” value in experiment [4] and in experiment [5] were 133% and 170%, respectively.
As for `[Hg+2]` [Hg^2+], in the experiment on D-pantolactone hydrolase, the “inhibition of the enzyme” value was “inhibited”.
Consider `O=C1Nc2ccccc2C1=O` [Isatin], for which the Activity entry in experiment [2] (setting [11]) is listed as “(+) ((+): >0.5 U/l)”; in experiment [3] (setting [11]), “+ (+: >5 U/l)”.
Turning to `CC(C)O` [Isopropanol], the “Relative Activity” value in experiment [4] (added substance 10%, vs no addition) is 93%.
As for `[Cl-].[K+]` [KCl], the “Relative Activity” value in experiment [4] is 99%.
Turning to `O=C1OC(C(O)CO)C(O)C1O` [L-(+)-Gulono-γ-lactone], the results for the Activity entry in experiment [2] (setting [10]) and in experiment [3] (setting [10]) were “++ (++: >50 U/l)” and “+ (+: >5 U/l)”, respectively.
Consider `O=C1O[C@H]([C@@H](O)CO)[C@@H](O)[C@@H]1O` [L-Galactono-γ-lactone], for which the Activity result in experiment [2] (pH 6.8) and in experiment [3] (pH 6.8) was “++ (key: ++: >50 U/l; +: >5 U/l; (+): >0.5 U/l; −: <0.5 U/l)” throughout.
Take `CO` [MeOH]: the “Relative Activity” value in experiment [4] is 100%.
In the case of `[Cl-].[Cl-].[Mg+2]` [MgCl2], the “Relative Activity” value in experiment [4] is 99%; in experiment [5] it was 114%.
With `[Cl][Mn][Cl]` [MnCl2], the “Relative Activity” value in experiment [4] stood at 100%.
Take `Cl.N` [NH4Cl]: the “Relative Activity” value in experiment [4] came to 100%.
On to `[Cl][Ni][Cl]` [NiCl2], for which the “Relative Activity” value in experiment [4] turned out to be 96%.
As for `O=S(=O)(F)Cc1ccccc1` [PMSF], in experiment [4], the “Relative Activity” value came to 113%.
`CC(C)CC(=O)N[C@H](C(=O)N[C@H](C(=O)N[C@@H](CC(C)C)[C@@H](O)CC(=O)N[C@@H](C)C(=O)N[C@@H](CC(C)C)[C@@H](O)CC(=O)O)C(C)C)C(C)C` [Pepstatin] (Isovaleryl-VV[Sta]A[Sta]-OH): the “Relative Activity” value in experiment [4] (setting [7]) is reported as 117%.
With `CC1(C)COC(=O)[C@H]1O` [S-Pantolactone], the Activity result in experiment [2] (pH 6.8) and in experiment [3] (pH 6.8) was “++ (key: ++: >50 U/l; +: >5 U/l; (+): >0.5 U/l; −: <0.5 U/l)” in each case.
Consider `CCCCCCCCCCCCOS(=O)(=O)[O-].[Na+]` [SDS, Sodium dodecyl sulfate], for which the “Relative Activity” value came out at 102% in experiment [4] (added substance 1%, vs no addition) and 74% in experiment [5] (added substance 1%, vs no addition, sulfate).
On to `[Cl-].[Cl-].[Zn+2]` [ZnCl2], for which the “Relative Activity” value is given as 113% in experiment [4] and 99% in experiment [5].
Regarding `c1cnc2c(c1)ccc1cccnc12` [o-Phenanthroline], the “Relative Activity” value in experiment [4] is reported as 95%.
On to `O=S(=O)(O)c1cc[c]([Hg][Cl])cc1` [pCMBS, p-Chloromercuribiphenylsulfonic [sic] acid], for which the “Relative Activity” value in experiment [4] is listed as 108%; in experiment [5], 112%.
Take `CC(=O)Oc1cccc2ccccc12` [α-Naphthyl acetate]: the Activity result in experiment [2] (setting [8]) and in experiment [3] (setting [8]) was “(+) ((+): >0.5 U/l)” throughout.
Regarding `O=C1CCCO1` [γ-Butyrolactone], the Activity entry in experiment [2] (pH 6.8) is reported as “++ (key: ++: >50 U/l; +: >5 U/l; (+): >0.5 U/l; −: <0.5 U/l)”; in experiment [3] (pH 6.8), “+ (key: ++: >50 U/l; +: >5 U/l; (+): >0.5 U/l; −: <0.5 U/l)”.
In the case of `CC1CCC(=O)O1` (stereo not shown) [γ-Valerolactone], the Activity result in experiment [2] (pH 6.8) is reported as “++ (key: ++: >50 U/l; +: >5 U/l; (+): >0.5 U/l; −: <0.5 U/l)”; in experiment [3] (pH 6.8) it was “+ (key: ++: >50 U/l; +: >5 U/l; (+): >0.5 U/l; −: <0.5 U/l)”.
With `CCCCC1CCCC(=O)O1` (stereo not shown) [δ-Nonalactone], the Activity result is “++ (key: ++: >50 U/l; +: >5 U/l; (+): >0.5 U/l; −: <0.5 U/l)” in experiment [2] (pH 6.8) and “+ (key: ++: >50 U/l; +: >5 U/l; (+): >0.5 U/l; −: <0.5 U/l)” in experiment [3] (pH 6.8).
Turning to `O=C1CCCCO1` [δ-Valerolactone], the values for the Activity entry in experiment [2] (setting [12]) and in experiment [3] (setting [12]) were “++ (++: >50 U/l)” and “+ (+: >5 U/l)”, respectively.
For `O=C1CCCCCO1` [ε-Caprolactone], the Activity result in experiment [2] (pH 6.8) and in experiment [3] (pH 6.8) was “++ (key: ++: >50 U/l; +: >5 U/l; (+): >0.5 U/l; −: <0.5 U/l)” each time.
Turning to CoCl2, the “Relative Activity” value in experiment [4] was 97%.
Take Triton: the “Relative Activity” value in experiment [4] amounted to 104%.
